Experiment in all cases: NCI-60 cell line screen, 48 h
Test [1] has as its system T-47D breast.
Test [2] relates to OVCAR-4 ovarian.
Test [3] relates to MALME-3M melanoma.
Test [4] deals with NCI-H226 lung.
Test [5] relates to SW-620 colon.
Test [6] deals with RPMI-8226 leukemia.
Test [7] concerns TK-10 renal.
Test [8] deals with MOLT-4 leukemia.

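Assay format: 96-well plates, 48-hour exposure. GI50 marks 50% less growth. TGI denotes the concentration required for complete inhibition of growth.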 Where only a bound is given, the exact number is not on record here.

In the case of `Cn1ncc2cc(-c3cnc(N)c(Cl)c3N3CCC4(CCNC4=O)CC3)ccc21`, the GI50 in test [1] was 15.7 µM; in test [2], 38.9 µM; in test [3], 37.5 µM; in test [4], 38.1 µM; in test [5] it was 21.3 µM; in test [6], 16 µM. The GI50 in test [7] was 36.1 µM; in test [8] it was 20700 nM. The TGI in test [1] was 84.2 µM; in test [2], more than 100 µM; in test [3], more than 100 µM; in test [4], more than 100 µM; in test [5] it was more than 100 µM; in test [6], 95.5 µM. Besides, the TGI in test [7] and in test [8] was more than 100 µM throughout.
As for `COc1ccc(C(CC(=O)c2ccccc2)C(C(=O)c2ccccc2)C(c2ccc(OC)cc2)C2C(=O)NC(=O)NC2=O)cc1` (centres undefined), the GI50 is 21.6 µM in test [1]; 26 µM in test [2]; 33.1 µM in test [3]; 20 µM in test [4]; 26.3 µM in test [5]; 13.8 µM in test [6]. The figures for the GI50 in test [7] and in test [8] were 43.2 µM and 60700 nM, respectively. Further, the TGI in test [1] was more than 100 µM; in test [2], more than 100 µM; in test [3], more than 100 µM; in test [4], 62 µM; in test [5] it was more than 100 µM; in test [6] it was more than 100 µM. Further, the TGI in test [7] and in test [8] was more than 100 µM in each case.
Take `OCC1SC(n2cnc3cncnc32)C(O)C1O` (centres undefined): the GI50 in test [1], in test [2], in test [3], in test [4], in test [5] and in test [6] was more than 100 µM in each case. The GI50 in test [7] is more than 100 µM; in test [8], more than 100000 nM. Besides, the TGI in test [1], in test [2], in test [3], in test [4], in test [5] and in test [6] was more than 100 µM throughout. In addition, the TGI in test [7] and in test [8] was more than 100 µM each time.
`O=S(=O)(Nc1ccc(-c2nc(-c3cccc(OCCN4CCOCC4)c3)c(-c3ccnc(Br)c3)[nH]2)cc1)c1ccccc1`: the GI50 in test [1] is 2.86 µM; in test [2], 4.16 µM; in test [3], 2.2 µM; in test [4] it was 3.1 µM; in test [5] it was 3.53 µM; in test [6] it was 2.5 µM. Also, the GI50 in test [7] was 4.16 µM; in test [8], 2590 nM. Moreover, the TGI in test [1] was 28.6 µM; in test [2], more than 100 µM; in test [3], 56.9 µM; in test [4], 40.6 µM; in test [5], more than 100 µM; in test [6], more than 100 µM. The TGI in test [7] and in test [8] was more than 100 µM each time.
As to `COc1ccc2c(c1)O/C(=C\c1cccc(OCC(=O)Nc3nc4ccccc4s3)c1)C2=O`, the GI50 was 9.66 µM in test [1]; 22.3 µM in test [2]; 2 µM in test [3]; 42 µM in test [4]; 38.4 µM in test [5]; 4.87 µM in test [6]. Further, the GI50 in test [7] is more than 54.3 µM; in test [8], 3330 nM. For the same compound, the TGI was more than 100 µM in test [1]; more than 100 µM in test [2]; 4.37 µM in test [3]; more than 100 µM in test [4]; more than 100 µM in test [5]; more than 100 µM in test [6]. The results for the TGI in test [7] and in test [8] were more than 100 µM and 20.2 µM, respectively.
Turning to `COC1=CC(c2ccc[nH]2)=N/C1=C\c1[nH]c(C)c(C(=O)CCC(=O)Oc2ccc3c(c2)CCC2C3CC[C@]3(C)C(=O)CC[C@@H]23)c1C` (some centres undefined), the GI50 is 13.9 µM in test [1]; 13.1 µM in test [2]; 29.2 µM in test [3]; 10.9 µM in test [4]; 0.773 µM in test [5]; 5.85 µM in test [6]. The GI50 in test [7] is 25.2 µM; in test [8], 2710 nM. The TGI in test [1] was more than 100 µM; in test [2], more than 100 µM; in test [3] it was more than 100 µM; in test [4], more than 58.6 µM; in test [5] it was more than 37.9 µM; in test [6], more than 100 µM. The TGI in test [7] was more than 92 µM; in test [8] it was more than 100 µM.
With `O=C1C(=O)c2ccc(Br)cc2-c2cc(Br)ccc21`, the GI50 in test [1] is 1.41 µM; in test [2], 0.274 µM; in test [3] it was 7.74 µM; in test [4], more than 60.1 µM; in test [5], 0.84 µM; in test [6], 1.63 µM. Further, the GI50 is 22.7 µM in test [7] and 522 nM in test [8]. The TGI in test [1] is 3.92 µM; in test [2], 0.696 µM; in test [3], more than 52.3 µM; in test [4], more than 100 µM; in test [5], 2.91 µM; in test [6] it was 6.82 µM. Besides, the figures for the TGI in test [7] and in test [8] were more than 100 µM and 1.66 µM, respectively.
With `CCN(CC)c1ccc(NC(C(=O)c2ccccc2)c2ccccc2)cc1` (centres undefined), the GI50 was 3.35 µM in test [1]; 4.78 µM in test [2]; 2.76 µM in test [3]; 1.76 µM in test [4]; 2.25 µM in test [5]; 2.61 µM in test [6]. Also, the GI50 in test [7] is 2.49 µM; in test [8], 696 nM. The TGI in test [1] turned out to be 29 µM; in test [2], 46.2 µM; in test [3], 7.44 µM; in test [4], 3.53 µM; in test [5], 5.93 µM; in test [6] it was 12.3 µM. For the same compound, the TGI in test [7] amounted to 7.53 µM; in test [8] it was 24.4 µM.
On to `Cc1cc(N(CCCl)CCCl)ccc1C=Nc1cccnc1`, for which the GI50 in test [1] is 1.6 µM; in test [2] it was 22.4 µM; in test [3] it was 22.4 µM; in test [4] it was 0.306 µM; in test [5], 61.2 µM; in test [6] it was 21.1 µM. The GI50 in test [7] was 10.4 µM; in test [8], 2050 nM. The TGI in test [1] was more than 73.2 µM; in test [2], more than 100 µM; in test [3], more than 100 µM; in test [4] it was 1.79 µM; in test [5], more than 100 µM; in test [6], more than 100 µM. Besides, the figures for the TGI in test [7] and in test [8] were more than 66 µM and more than 80.9 µM, respectively.

The values above are taken from PubChem BioAssay (NCI).
